Drawing on patent publication US20240124442A1, “TRICYCLIC-AMIDO-BICYCLIC PRMT5 INHIBITORS” (AMGEN INC., priority 2021, published 2024), this text covers IC50 for 17 compounds.

SMILES strings stand for the structures.

Test [1] has as its system HCT116 WT cells. The experiment in a line: HCT116 WT (parent) cell line proliferation / cell viability (CellTiter-Glo, 6 days). Format: cell-based. The settings on record: Homo sapiens, HCT-116, 144 h, 6 days treatment. The procedure, abridged: (§1)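 Isogenic HCT116 pair (parental and MTAP-knockout) in RPMI 1640 + 10% FBS, treated 6 days with 8–9-point 1:3 dilutions from 1 or 10 μM top, or 22-point 1:2 dilutions from 10 or 50 μM top. Viability by CellTiter-Glo luminescence; IC50 from 4-parameter logistic fit or sigmoidal fit with Hill slope fixed at −1.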

Test [2] has as its system HCT116 MTAP null cells. The experiment in a line: HCT116 MTAP null cell line proliferation / cell viability (CellTiter-Glo, 6 days). The settings on record: 144 h; HCT116 MTAP null cells, 6 days treatment, CellTiter-Glo cell viability; read-out: HCT-116 MTAP null IC50. It is filed as cell-based. The method, boiled down:
as §1

Consider `CN(C(=O)c1cc2c3c(c(N)nc2cc1Cl)COC3)[C@@H]1COc2cc(C(F)(F)F)ncc21` (single isomer, unassigned) [Example 361], for which the IC50 in test [1] was found to be 1340 nM; in test [2] it was 29 nM.
With `CN(C(=O)c1cc2c3c(c(N)nc2cc1Cl)COC3)[C@H]1COc2cc(C(F)(F)F)ncc21` (single isomer, unassigned) [Example 362], the half-inhibitory concentration (IC50) in test [1] is 35600 nM; in test [2] it was 744 nM.
For `CN(C(=O)c1ccc2nc(N)c3cnn(C)c3c2c1)[C@@H]1CCc2nc(C(F)(F)F)ccc21` (single isomer, unassigned) [Example 363], the IC50 in test [1] amounted to 2500 nM; in test [2] it was 17 nM.
Take `CN(C(=O)c1ccc2nc(N)c3cnn(C)c3c2c1)[C@H]1CCc2nc(C(F)(F)F)ccc21` (single isomer, unassigned) [Example 364]: the IC50 is 34900 nM in test [1] and 2860 nM in test [2].
The matching figures for `CCN(C(=O)c1ccc2nc(N)c3cnn(C)c3c2c1)[C@@H]1COc2cc(C(F)(F)F)ccc21` (single isomer, unassigned) [Example 365]: 212 nM and 5 nM.
As to `CN(C(=O)c1ccc2nc(N)c3cnn(C)c3c2c1)[C@@H]1COc2cc(S(F)(F)(F)(F)F)ccc21` (single isomer, unassigned) [Example 366], the results for the half-inhibitory concentration (IC50) in test [1] and in test [2] were 155 nM and 6 nM, respectively.
On to `CN(C(=O)c1ccc2nc(N)c3cnn(C)c3c2c1)[C@H]1COc2cc(S(F)(F)(F)(F)F)ccc21` (single isomer, unassigned) [Example 367], for which the IC50 in test [1] was 5270 nM; in test [2] it was 485 nM.
`CN(C(=O)c1ccc2nc(N)c3cnn(C)c3c2c1)[C@@H]1CCc2cc(Br)ccc21` (single isomer, unassigned) [Example 368]: the IC50 in test [1] stood at 2530 nM; in test [2], 37 nM.
Regarding `CN(C(=O)c1ccc2nc(N)c3cnn(C)c3c2c1)[C@H]1CCc2cc(Br)ccc21` (single isomer, unassigned) [Example 369], the values for the IC50 in test [1] and in test [2] were 4130 nM and 519 nM, respectively.
For the compound `CN(C(=O)c1ccc2nc(N)c3cnn(C)c3c2c1)[C@@H]1CCc2nc(Br)ccc21` (single isomer, unassigned) [Example 370], the values for the IC50 in test [1] and in test [2] were 1800 nM and 29 nM, respectively.
Take `CN(C(=O)c1cc2c(cn1)nc(N)c1cnn(C)c12)[C@@H]1CCc2nc(C(F)(F)F)ccc21` (single isomer, unassigned) [Example 371]: the IC50 in test [1] was found to be 1620 nM; in test [2], 27 nM.
For `CCN(C(=O)c1cc2c(cn1)nc(N)c1cnn(C)c12)[C@@H]1COc2cc(C(F)(F)F)ccc21` (single isomer, unassigned) [Example 372], the IC50 in test [1] stood at 114 nM; in test [2], 10 nM.
Taken in the same sequence, the figures for `CN(C(=O)c1cc2c(cc1F)nc(N)c1cnn(C)c12)[C@@H]1COc2cc(C#N)ccc21` (single isomer, unassigned) [Example 373] were 235 nM and 4 nM.
Regarding `CN(C(=O)c1cc2c(cc1F)nc(N)c1cnn(C)c12)[C@H]1COc2cc(C#N)ccc21` (single isomer, unassigned) [Example 374], the concentration for half-maximal inhibition (IC50) came out at 22400 nM in test [1] and 272 nM in test [2].
With `CN(C(=O)c1cc2c(cc1F)nc(N)c1cnn(C)c12)[C@@H]1CCc2nc(C(F)(F)F)ccc21` (single isomer, unassigned) [Example 375], the IC50 came out at 568 nM in test [1] and 9 nM in test [2].
With `CN(C(=O)c1cc2c(cc1F)nc(N)c1cnn(C)c12)[C@H]1CCc2nc(C(F)(F)F)ccc21` (single isomer, unassigned) [Example 376], the values for the IC50 in test [1] and in test [2] were 12800 nM and 882 nM, respectively.
`CN(C(=O)c1cc2c(cc1F)nc(N)c1cnn(C)c12)[C@@H]1COc2nc(C(F)(F)F)ccc21` (single isomer, unassigned) [Example 377]: the 50% inhibitory concentration (IC50) in test [1] is 595 nM; in test [2], 10 nM.
